Laboratory results: paper PMC2745557 (FEBS letters, 2009)

Legend:
Bombyx AKHR [1] = target: T1, Bombyx AKHR (Bombyx mori, UniProt Q8T6U9); settings: compared with AKH1; ref [12]; cited from earlier work
T1 sequence (Q8T6U9 1-405): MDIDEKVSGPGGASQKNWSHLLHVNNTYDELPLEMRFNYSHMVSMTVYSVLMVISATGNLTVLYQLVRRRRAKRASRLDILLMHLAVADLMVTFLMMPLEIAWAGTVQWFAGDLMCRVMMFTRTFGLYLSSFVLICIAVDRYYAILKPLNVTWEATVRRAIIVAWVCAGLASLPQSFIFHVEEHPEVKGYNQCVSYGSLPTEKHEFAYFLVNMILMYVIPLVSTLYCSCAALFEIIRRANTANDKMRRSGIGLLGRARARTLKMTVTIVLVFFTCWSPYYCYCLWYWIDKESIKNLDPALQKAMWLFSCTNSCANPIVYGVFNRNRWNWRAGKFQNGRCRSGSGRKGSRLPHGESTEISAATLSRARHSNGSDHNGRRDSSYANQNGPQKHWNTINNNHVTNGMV

Bombyx AKHR [2] = target: T1, Bombyx AKHR; format: cell-based

## Heliothis zea hypertrehalosaemic hormone [Hez-HrTH]
Bombyx AKHR [1]
  affinity of activation of Bombyx AKHR: higher affinity than that of AKH1

## Pertussis toxin [PTX]
Bombyx AKHR [2]
  effect of toxin pre-treatment on cAMP generation: no effect on cAMP generation

## cholera toxin [CTX]
Bombyx AKHR [2]
  effect of toxin pre-treatment on cAMP generation: remarkable increase in the cellular levels of cAMP
